According to publication PMC12775422 (NPJ Biofilms and Microbiomes, 2025):

Molecular target: T1, ferredoxin PA1551 (Pseudomonas aeruginosa, UniProt Q9I3G6)
T1 sequence (Q9I3G6 1-471): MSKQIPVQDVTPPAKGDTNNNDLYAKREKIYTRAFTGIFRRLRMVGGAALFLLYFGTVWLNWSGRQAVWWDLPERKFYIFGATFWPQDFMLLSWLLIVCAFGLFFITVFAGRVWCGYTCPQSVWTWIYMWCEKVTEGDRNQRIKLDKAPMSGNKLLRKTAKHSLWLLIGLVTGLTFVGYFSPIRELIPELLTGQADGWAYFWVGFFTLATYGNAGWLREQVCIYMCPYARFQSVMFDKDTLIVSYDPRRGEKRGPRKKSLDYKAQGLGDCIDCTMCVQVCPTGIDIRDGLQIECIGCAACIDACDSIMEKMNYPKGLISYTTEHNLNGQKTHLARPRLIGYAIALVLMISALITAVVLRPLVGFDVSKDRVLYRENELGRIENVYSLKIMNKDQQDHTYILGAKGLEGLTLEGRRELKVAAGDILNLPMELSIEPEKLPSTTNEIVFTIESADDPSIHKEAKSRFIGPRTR
Assay: microscale thermophoresis
Assay type: binding

## CCCCCCC(=O)NCc1c(O)c(=O)cc(C)n1C [10d, 2-(heptanamido)methyl 3-hydroxy-1,6-dimethylpyridin-4(1H)-one]
  Kd: 0.057 µM
